Paper PMC6572135, “N-Methyl-D-glucamine–Calix[4]resorcinarene Conjugates: Self-Assembly and Biological Properties” (Molecules, 2019)

Test: Conductometry, critical aggregation concentration
Assay type: physicochemical
Conditions: water solution, 25 °C; GCR-2 in the presence of two-fold excess of MG
Method: Firstly, self-assembly of GCR-1 was studied by conductometric measurements (Figure 1). Specific conductivity increases proportionately with the GCR-1 concentration in water solution. Inflection on the plot appears at 14 mM, and after this critical aggregation concentration (CAC) the increment rate of conductivity reduces because the aggregates transfer charge less efficiently than monomers. Remarkably, modification of calix[4]resorcinarene by N-methyl-D-glucamine fragment facilitates self-aggregation of macrocycle in water medium (Figure 1). The CAC value for calix[4]resorcinarene (CR-1) without meglumine units at the upper rim is 20 mM that is greater than that for meglumine-modified calix[4]resorcinarene. The driving forces of intermolecular aggregates’ formation are probably hydrogen bonds between hydroxyl groups on the GCR-1 upper rim, so the presence of additional OH-groups in the meglumine group reinforces this noncovalent interaction. A stable pH value, which can be observed over a wide range of concentrations, verifies that the N-methyl-D-glucamine fragment is an effective buffer component (Figure S4). […] As a result, the aggregation of this calix[4]resorcinarene was studied in water solutions at the presence of two-fold excess of N-methyl-D-glucamine (MG). […] Specific conductivity values were measured at least three times for each concentration. […]

**Q.** With “Sulfonatoethylcalix[4]resorcinarene [CR-1, reference compound]” as the substance, how does the “CAC, conductometry” value read?
**A.** Its value is 20 mM.
